Measured values reported in patent US5258406A, “Sulfonimidamides” (priority 1992, dated 1993).
Read-outs that look alike come from different tables or passages of the source.

Legend:
[1] = tested on: 6C3HED lymphosarcoma; test: animal or person; type: in vivo
Description: (§1) The compounds were tested in C3H mice bearing a 6C3HED lymphosarcoma, also known as the Gardner lymphosarcoma (GLS), and in a variety of human tumor xenografts in CD1 nu/nu mice, including CX-1, LX-1, HXGC3, and VRC5. The 6C3HED lymphosarcoma was obtained from the Division of Cancer Treatment, National […] Institute, Tumor Bank, maintained at E. G. and G. Mason Research (Worcester, Mass.). The CX-1 human colon carcinoma and the LX-1 human lung carcinoma xenografts were obtained from the National Cancer Institute. The HXGC3 and VRC5 human colon xenografts were obtained from Dr. P. J. Houghton, St. Jude Children's Hospital in Memphis (see Br. J. Cancer, 37, 213 (1978)). First passage tumor was stored in liquid nitrogen using standard techniques. The transplanted tumor was reestablished from the Tumor Bank every six months or as needed. The tumor was maintained by serial passage twice weekly in C3H mice.
(§2) In the procedure the tumor was removed from passage animals and minced into 1- to 3-mm square fragments using sterile techniques. Tumor pieces were checked for sterility using both Antibiotic Medium 1 and Brain Heart Infusion (Difco, Detroit, Mich.). Recipient mice were shaved and tumor pieces were implanted subcutaneously in the auxiliary region by trocar. Drug therapy on the appropriate schedule was initiated on the day after tumor implant for 6C3HED and after a seven (7) day delay for xenografts (or other delay as noted in Table 2). The compound being tested was mixed with 2.5% Emulphor EL620 from GAF Corporation (1:40 dilution in saline). Food and water were provided ad libitium. The drug was administered orally in 0.5 ml of 2.5% Emulphor (unless otherwise indicated). The tumor was measured the day after treatment ended with two dimensional measurements (width and length) of the tumor taken using automated digital calipers interfaced to a microcomputer. Approximate weight for the tumor was calculated using the following formula [Worzalla, J. F., et al., Invest. New Drugs, 8, 241 (1990], (tumor weight in mg)=(width in mm)^2 ×(length in mm)/2.
(§3) At least one control group of an equal number of mice was treated with the same volume of 2.5% Emulphor only. The percent inhibition was determined by subtracting the ratio of the mean tumor size of the test group relative to the control group from one and multiplying the result times 100.
(§4) The results of several experiments in mice bearing a 6C3HED lymphosarcoma (or other tumor where indicated) when the indicated compounds were administered are provided in Table 2. In Table 2, column 1 gives the Example number of the compound used, column 2 lists the dose level in mg/kg, column 3 provides the percent inhibition of tumor growth, column 4 gives the number of mice which died relative to the total number of animals in the group, column 5 gives the method of administration of the compound, and column 6 gives the dosage schedule. The protocol used with other tumors was the same as with the 6C3HED lymphosarcoma.

[2] = tested on: LX1; type: in vivo
Description: as §1, §2, §3, §4

[3] = Mus musculus, 6C3HED, po, read-out: % inhibition of tumor growth, oral, 150 mg/kg, DX 8
[4] = Mus musculus, 6C3HED, po, read-out: % inhibition of tumor growth, oral, 300 mg/kg, DX 8
[5] = oral, 150 mg/kg, Days 1, 3, 5, 7

CN=S(=O)(NC(=O)Nc1ccc(Cl)cc1)c1ccc(C)cc1 (stereo not drawn) [Example 3, N-[[(4-Chlorophenyl)amino]carbonyl]-N',4-dimethylbenzenesulfonimidamide]
inhibition in vivo at 12.5 mg/kg ([1]; Mus musculus, 6C3HED, po, read-out: % inhibition of tumor growth, oral, 12.5 mg/kg, BIDX 8): 58%
inhibition in vivo at 25 mg/kg ([1]; Mus musculus, 6C3HED, po, read-out: % inhibition of tumor growth, oral, 25 mg/kg, BIDX 8): 82%
inhibition in vivo at 50 mg/kg ([1]; Mus musculus, 6C3HED, po, read-out: % inhibition of tumor growth, oral, 50 mg/kg, BIDX 8): 91%
inhibition in vivo at 75 mg/kg ([1]; Mus musculus, 6C3HED, po, read-out: % inhibition of tumor growth, oral, 75 mg/kg, DX 8): 81%
inhibition in vivo at 100 mg/kg ([1]; Mus musculus, 6C3HED, po, read-out: % inhibition of tumor growth, oral, 100 mg/kg, BIDX 8): 99%
inhibition in vivo at 150 mg/kg [1, 3]: 93%
inhibition in vivo at 200 mg/kg ([1]; Mus musculus, 6C3HED, po, read-out: % inhibition of tumor growth, oral, 200 mg/kg, BIDX 8): 100%
inhibition in vivo at 300 mg/kg [1, 4]: 99%
inhibition in vivo at 600 mg/kg ([1]; Mus musculus, 6C3HED, po, read-out: % inhibition of tumor growth, oral, 600 mg/kg, DX 8): 100%
Tox/Tot (mice which died / total) ([1]; oral, 12.5 mg/kg, BIDX 8): 0/10
Tox/Tot (mice which died / total) ([1]; oral, 25 mg/kg, BIDX 8): 0/10
Tox/Tot (mice which died / total) ([1]; oral, 50 mg/kg, BIDX 8): 0/10
Tox/Tot (mice which died / total) ([1]; oral, 75 mg/kg, DX 8): 0/10
Tox/Tot (mice which died / total) ([1]; oral, 100 mg/kg, BIDX 8): 0/10
% inhibition of tumor growth ([1]; oral, 150 mg/kg, DX 8): 96%
Tox/Tot (mice which died / total) ([1]; oral, 150 mg/kg, DX 8): 1/10
Tox/Tot (mice which died / total) ([1]; oral, 200 mg/kg, BIDX 8): 0/10
Tox/Tot (mice which died / total) ([1]; oral, 300 mg/kg, DX 8): 0/10
Tox/Tot (mice which died / total) ([1]; oral, 600 mg/kg, DX 8): 4/10
% inhibition of tumor growth ([1]; oral, 1200 mg/kg, DX 8): TOX
Tox/Tot (mice which died / total) ([1]; oral, 1200 mg/kg, DX 8): 10/10
% inhibition of tumor growth ([2]; oral, 150 mg/kg, BIDX 10): TOX
Tox/Tot (mice which died / total) ([2]; oral, 150 mg/kg, BIDX 10): 8/8
% inhibition of tumor growth ([2]; oral, 300 mg/kg, BIDX 10): TOX
Tox/Tot (mice which died / total) ([2]; oral, 300 mg/kg, BIDX 10): 8/8

Cc1cc(S(=N)(=O)NC(=O)Nc2ccc(Cl)cc2)cc(C)c1C (stereo not drawn) [Example 45, N-[[(4-chlorophenyl)amino]carbonyl]-3,4,5-trimethylbenzenesulfonimidamide]
inhibition in vivo at 9.37 mg/kg ([1]; Mus musculus, 6C3HED, po, read-out: % inhibition of tumor growth, oral, 9.37 mg/kg, Days 1, 3, 5, 7): 78%
inhibition in vivo at 18.75 mg/kg ([1]; Mus musculus, 6C3HED, po, read-out: % inhibition of tumor growth, oral, 18.75 mg/kg, Days 1, 3, 5, 7): 95%
inhibition in vivo at 37.5 mg/kg ([1]; Mus musculus, 6C3HED, po, read-out: % inhibition of tumor growth, oral, 37.5 mg/kg, Days 1, 3, 5, 7): 99%
inhibition in vivo at 75 mg/kg ([1]; Mus musculus, 6C3HED, po, read-out: % inhibition of tumor growth, oral, 75 mg/kg, Days 1, 3, 5, 7): 99%
inhibition in vivo at 150 mg/kg ([1]; Mus musculus, 6C3HED, po, read-out: % inhibition of tumor growth, oral, 150 mg/kg, Days 1, 3, 5, 7): 100%
inhibition in vivo at 300 mg/kg ([1]; Mus musculus, 6C3HED, po, read-out: % inhibition of tumor growth, oral, 300 mg/kg, Days 1, 3, 5, 7): 100%
Tox/Tot (mice which died / total) ([1]; oral, 9.37 mg/kg, Days 1, 3, 5, 7): 0/10
Tox/Tot (mice which died / total) ([1]; oral, 18.75 mg/kg, Days 1, 3, 5, 7): 0/10
Tox/Tot (mice which died / total) ([1]; oral, 37.5 mg/kg, Days 1, 3, 5, 7): 2/10
Tox/Tot (mice which died / total) ([1]; oral, 75 mg/kg, Days 1, 3, 5, 7): 1/10
% inhibition of tumor growth [1, 5]: 99%
Tox/Tot (mice which died / total) [1, 5]: 2/10
Tox/Tot (mice which died / total) ([1]; oral, 300 mg/kg, Days 1, 3, 5, 7): 3/10
Tox/Tot (mice which died / total) ([2]; oral, 150 mg/kg, Days 1, 4, 7, 10, from day 7 after implant): 0/9
Tox/Tot (mice which died / total) ([2]; oral, 300 mg/kg, Days 1, 4, 7, 10, from day 7 after implant): 0/10
% inhibition of tumor growth ([2]; po, 150 mg/kg, 168 h): 40%
% inhibition of tumor growth ([2]; po, 300 mg/kg, 168 h): 31%

Cc1ccc(S(=O)(=NC(=O)Nc2ccc(Cl)cc2)Nc2ccccc2)cc1 (stereo not drawn) [Example 14]
Tox/Tot (mice which died / total) ([1]; IP, 150 mg/kg, DX 8): 2/10
Tox/Tot (mice which died / total) ([1]; IP, 300 mg/kg, DX 8): 3/10
inhibition in vivo at 150 mg/kg ([1]; Mus musculus, 6C3HED, ip, read-out: % inhibition of tumor growth, IP, 150 mg/kg, DX 8): 1%
inhibition in vivo at 300 mg/kg ([1]; Mus musculus, 6C3HED, ip, read-out: % inhibition of tumor growth, IP, 300 mg/kg, DX 8): 38%
inhibition in vivo at 150 mg/kg [1, 3]: 0%
inhibition in vivo at 300 mg/kg [1, 4]: 5%
Tox/Tot (mice which died / total) ([1]; oral, 150 mg/kg, DX 8): 0/10
Tox/Tot (mice which died / total) ([1]; oral, 300 mg/kg, DX 8): 0/10

Cc1ccc(S(=O)(=NC(=O)Nc2ccc(Cl)cc2)NCCCO)cc1 (stereo not drawn) [Example 11]
inhibition in vivo at 150 mg/kg ([1]; Mus musculus, 6C3HED, po, read-out: % inhibition of tumor growth, oral, 150 mg/kg, BIDX 8): 65%
inhibition in vivo at 300 mg/kg ([1]; Mus musculus, 6C3HED, po, read-out: % inhibition of tumor growth, oral, 300 mg/kg, BIDX 8): 89%
Tox/Tot (mice which died / total) ([1]; oral, 150 mg/kg, BIDX 8): 0/10
Tox/Tot (mice which died / total) ([1]; oral, 300 mg/kg, BIDX 8): 2/10
